For data set [1] the following is noted: Figure 1, cited from earlier work.
A short description of data set [2]: DPPH radical scavenging antioxidant assay. The data set is classed as biochemical. To be noted: Table 1; mean ± SD, n = 3; 517 nm after 20 min. The procedure:
In DPPH radical scavenging method the plant extract (0.75 mL) at different concentrations ranging from 10 to 100 μg mL^−1 was mixed with 1.5 mL of a DPPH methanolic solution (20 mg L^−1). Pure methanol was taken as control and ascorbic acid (vitamin C), vitamins A and E were used as a reference compounds. The absorbance was measured at 517 nm after 20 min of reaction. The % of DPPH decolouration of the sample was calculated according to the formula (Sharma and Bhat, [2009]).
Decolouration % = [1−(Abs SAMPLE/Abs CONTROL)]×100
The decolouration was plotted against the sample extract concentration and a logarithmic regression curve was established in order to calculate the IC50. The results are expressed as antiradical efficiency (AE), which is 1000-fold inverse of the IC50 value AE=1000/ IC50.

The subject of data set [3] is 3T3 fibroblast cell lines. Description: in vitro. The data set is classed as cell-based. To be noted: mouse, 72 h, 250 μg/ml. The protocol:
(§1) Cell toxicity of active C-3 tethered 2-oxo-benzo[1,4]oxazine analogs were accessed using 3T3 fibroblast cell lines in MTT assay via the reported protocol of Danihelová et al. ([2013]) [For details, see supporting information].
(§2) The cytotoxic effect of the active compounds prepared on cells was detected in vitro using the mitochondrial cytotoxic test according to Danihelová et al. (2013) with modifications. Cell viability was evaluated using thiazolyl blue tetrazolium bromide (MTT), which indicates the metabolic activity of cells. The experiment was performed in 96-well microplates. The cells were seeded at a density of 3.5×10^3 3T3 fibroblast cells per well. Samples were dissolved in DMSO (stock solution 10 […]
(§3) (concentration of DMSO 0.5%) and after 24 h they were added to the cells. Microplates were cultivated for 72 h in thermostat at 37 °C and 5% CO 2 atmosphere. After incubation thiazolyl blue tetrazolium bromide (3.33 mg/ml phosphate buffered saline, pH=7.4) was pipetted to each well and left to incubate for further two hours. Then the medium with MTT solution was removed. Formazan crystals in viable cells were dissolved in the lysis solution (4 mM HCl and 0.1% Nonidet P40 in ethanol). Microplates were shaken 15 min at 1500 rpm. Absorbance was measured at 540 nm and reference wavelength at 740 nm. Each value is the mean of 6 wells with standard deviation.
(§4) Inhibition activity was expressed as percentages of control with DMSO.

Data set [4] in a line: in vitro. The data set is classed as cell-based. The conditions noted are these: mouse, Cell viability (%). The procedure: as §1, §2, §3, §4
Data set [5] can be described thus: Ferric reducing antioxidant power (FRAP) assay. It counts as biochemical. To be noted: for FRAP assay (C0.5FRAP): mean ± SD, n = 3, concentration equivalent to FeSO4 at 0.5 mmol/L, 37°C, 30 min, 593 nm; for FRAP potency compared with standard reference BHT: in words, BHT C0.5FRAP = 546.0 ± 13.6 μM. The procedure:
The FRAP reagent was prepared by the addition of freshly prepared 20.0 mM FeCl3.6H2O solution, 10.0 mM of […] (TPTZ) solution and 300 mM sodium acetate buffer (pH 3.6) in a ratio of 1:1:10 (v/v/v). After that, Sample (our synthesized 2-oxo-2-phenylethylidenes-linked 2-oxo-benzo[1,4]oxazines 20a-ab) was added to 3 ml of freshly prepared FRAP reagent and this reaction mixture was incubated at 37°C temperature for 30 min. and the absorbance was measured at 593 nm. It is also noted that, a freshly prepared solution of FeSO4 was used for calibration of standard curve. The FRAP antioxidant capability were evaluated in terms of C0.5FRAP (the antioxidant capability of samples related to their concentration, which is equivalent to that of FeSO4 at 0.5 mmol/L) (Benzie and Strain, [1996]).
The FRAP assay was deliberated using the method as illustrated by Benzie and Strain (Benzie and Strain, [1996]). […] The reducing nature of an antioxidant depends on their property to donate a hydrogen atom for the breaking of the free radical chain, which is responsible for oxidative stress etc.

The mark [6] stands for this setting: ref Niemeyer, 2009, Adhikari et al., 2013, Glenska et al., 2015.

Converted amounts (≈) assume the structure as drawn. Read-outs that look alike come from different tables or passages of the source.

Regarding `COc1ccc2c(c1)OC(O)C(=O)N2O` (stereo not drawn) [Compound 1, DIMBOA], in data set [1] (setting [6]), the “% DPPH-scavenging activity” value is given as 98.57% and the “IC50 (antioxidant activity)” value was 11.31 µg/mL (≈ 53.6 µM).
For the compound `O=c1[nH]c2ccccc2c(=O)o1` [Compound 4, 2H-benzo[d][1,3]oxazine-2,4(1H)-dione], in data set [1] (ref Sáncheza et al., 2014), the “% DPPH-scavenging activity” value is 17.2 ± 4.15%.
Take `O=C1Nc2ccccc2OC1O` (stereo not drawn) [Compound 5, 2-Hydroxy-1,4-benzoxazin-3(4H)-one]: the “IC50 (antioxidant activity)” value in data set [1] (ref Harput et al., 2011) was 39.29 µg/mL (≈ 238 µM).
Usually viability stands for the share of living cells, or the viability signal relative to a control. Read a high viability as less harm to the cells. A word on the melting point: it is the temperature, or range, at which the solid turns liquid. In turn, `COc1ccc(C(=O)/C=C2\Nc3ccccc3OC2=O)cc1` [Compound 20b, (Z)-3-[2-(4-methoxy-phenyl)-2-oxo-ethylidene]-3,4-dihydro-benzo [1, 4] oxazin-2-one] showed a melting point of 200 to 203 °C. Moreover, the DPPH assay IC50 in data set [2] turned out to be 6.89 ± 0.07 µg/mL. The “Cell viability (%)” value in data set [3] was determined as 75.58%. In data set [4], the viability at 72 h, 25 μg/ml was found to be 92.1%; the viability at 72 h, 50 μg/ml worked out at 88.4%; the viability at 72 h, 100 μg/ml stood at 80.7%; the viability at 72 h, 250 μg/ml was over 65%. Besides, in data set [5], the “FRAP assay (C0.5FRAP)” value amounted to 686.4 ± 30.8 µM.
As for `Cc1ccc2c(c1)N/C(=C\C(=O)c1ccc(Cl)cc1Cl)C(=O)O2` [Compound 20k, (Z)-3-[2-(2,4-dichloro-phenyl)-2-oxo-ethylidene]-6-methyl-3,4-dihydro-benzo[1,4]oxazin-2-one], the melting point lay within 142 to 145 °C. In addition, the DPPH assay IC50 in data set [2] is 43.6 ± 0.92 µg/mL. Moreover, the “FRAP assay (C0.5FRAP)” value in data set [5] came out at 652.5 ± 30.6 µM.
For `Cc1cc(Br)c2c(c1)N/C(=C\C(=O)c1ccc(Br)cc1)C(=O)O2` [Compound 20p, (Z)-8-bromo-3-(2-(4-bromophenyl)-2-oxoethylidene)-6-methyl-3,4-dihydro-2H-benzo[b] [1,4]oxazin-2-one], in that order: 259 to 260 °C, 44.3 ± 0.45 µg/mL and over 1000 µM.
With `O=C1Oc2ccccc2N/C1=C\C(=O)c1ccc([N+](=O)[O-])cc1` [Compound 20s, (Z)-3-(2-(4-nitrophenyl)-2-oxoethylidene)-3,4-dihydro-2H-benzo[b][1,4]oxazin-2-one], the melting point is 207 to 209 °C. This compound also showed a DPPH assay IC50 in data set [2] of 21.3 ± 0.28 µg/mL. In data set [5], the “FRAP potency compared with standard reference BHT” value is listed as “less active” and the “FRAP assay (C0.5FRAP)” value came out at 618.4 ± 23.9 µM.
With `O=C1Oc2ccc([N+](=O)[O-])cc2N/C1=C\C(=O)c1ccccc1` [Compound 20t, (Z)-6-nitro-3-(2-oxo-2-phenylethylidene)-3,4-dihydro-2H-benzo[b][1,4]oxazin-2-one], the melting point fell in the range of 198 to 200 °C. Moreover, in data set [2], the DPPH assay IC50 was found to be 4.74 ± 0.08 µg/mL. Moreover, the “Cell viability (%)” value in data set [3] is 67.46%. In addition, in data set [4], the viability at 72 h, 25 μg/ml was determined as 89.7%; the viability at 72 h, 50 μg/ml was 80.5%; the viability at 72 h, 100 μg/ml turned out to be 74.9%; the viability at 72 h, 250 μg/ml is over 65%. Besides, in data set [5], the “FRAP potency compared with standard reference BHT” value was “less active than BHT” and the “FRAP assay (C0.5FRAP)” value amounted to 638.2 ± 32.6 µM.
For the compound `O=C1Oc2ccc([N+](=O)[O-])cc2N/C1=C\C(=O)c1ccc(F)cc1` [Compound 20u, (Z)-3-(2-(4-fluorophenyl)-2-oxoethylidene)-6-nitro-3,4-dihydro-2H-benzo[b][1,4]oxazin-2-one], the melting point is over 250 °C. The compound also came in with a DPPH assay IC50 in data set [2] of 32.1 ± 0.52 µg/mL. In data set [5], the “FRAP potency compared with standard reference BHT” value is recorded as “more potent than standard reference BHT” and the “FRAP assay (C0.5FRAP)” value is 424.5 ± 19.7 µM.
For `O=C1Oc2cc([N+](=O)[O-])ccc2N/C1=C\C(=O)c1ccccc1` [Compound 20w, (Z)-7-nitro-3-(2-oxo-2-phenylethylidene)-3,4-dihydro-2H-benzo[b][1,4]oxazin-2-one], in that order: 240 to 242 °C, 12.53 ± 0.09 µg/mL, “less active than BHT” and 597.4 ± 26.4 µM.
Turning to `O=C1Oc2cc([N+](=O)[O-])ccc2N/C1=C\C(=O)c1ccc(F)cc1` [Compound 20x, (Z)-3-(2-(4-fluorophenyl)-2-oxoethylidene)-7-nitro-3,4-dihydro-2H-benzo[b][1,4]oxazin-2-one], the melting point lay within 235 to 237 °C. In data set [2], the DPPH assay IC50 was 10.18 ± 0.1 µg/mL. Further, in data set [3], the “Cell viability (%)” value was 73.91%. For the same compound, in data set [4], the viability at 72 h, 25 μg/ml was 95.5%; the viability at 72 h, 50 μg/ml stood at 86.7%; the viability at 72 h, 100 μg/ml is 81.1%; the viability at 72 h, 250 μg/ml is over 65%. The “FRAP assay (C0.5FRAP)” value in data set [5] was found to be 628.6 ± 32.4 µM.
In turn, `O=C1Oc2cc([N+](=O)[O-])ccc2N/C1=C\C(=O)c1ccc(Cl)cc1` [Compound 20y, (Z)-3-(2-(4-chlorophenyl)-2-oxoethylidene)-7-nitro-3,4-dihydro-2H-benzo[b][1,4]oxazin-2-one] showed a melting point of 205 to 207 °C. This compound also displayed a DPPH assay IC50 in data set [2] of 19.8 ± 0.35 µg/mL. Besides, in data set [5], the “FRAP assay (C0.5FRAP)” value was 708.2 ± 27.1 µM.
In turn, `O=C1Oc2cc([N+](=O)[O-])ccc2N/C1=C\C(=O)c1ccc(Cl)cc1Cl` [Compound 20z, (Z)-3-(2-(2,4-dichlorophenyl)-2-oxoethylidene)-7-nitro-3,4-dihydro-2H-benzo[b][1,4]oxazin-2-one] registered a melting point of 208 to 210 °C. In addition, the DPPH assay IC50 in data set [2] was 28.8 ± 0.67 µg/mL. In data set [5], the “FRAP potency compared with standard reference BHT” value was “more potent than standard reference BHT” and the “FRAP assay (C0.5FRAP)” value amounted to 437.6 ± 39.4 µM.

Source of the values: article PMC5876303, “Discovery of C-3 Tethered 2-oxo-benzo[1,4]oxazines as Potent Antioxidants: Bio-Inspired Based Design, Synthesis, Biological Evaluation, Cytotoxic, and in Silico Molecular Docking Studies” (Frontiers in Chemistry, 2018).
